Data on 4 molecules can be found in article PMC5108039, “Functional and Structural Characterization of a Novel HLA-DRB1*04:01-Restricted α-Enolase T Cell Epitope in Rheumatoid Arthritis” (Frontiers in Immunology, 2016).

One assay deals with HLA-DRB1*04:04 (Homo sapiens, UniProt P01903+P01911, A100R/A169T/F76Y/I96L/K127E/L162R/M171V/N62H/P40V/Q125Y/R42H/S133A/S149N/S66Y/V209L/W38E). The experiment in a line: Competition peptide-binding assay, HLA-DRB1*04:04. The following applies: competition with 0.02 μM biotinylated GAD65 270–285, plate-bound HLA-DRB1*04:04, increasing peptide concentrations; read-out: IC50 *04:04. Here is the method: Stepwise binding analysis of 15-mer peptides derived from both native and citrullinated α-enolase to HLA-DRB1*01, *04:01, and *04:04 was performed using the ProImmune Class II Reveal assay (ProImmune, Oxford, UK). Relevant peptides were thereafter synthesized by GenScript (Piscataway, NJ, USA) and used for competition peptide-binding assays. […] Finally, peptide-binding affinity to the three different HLA alleles was assessed in direct binding assays in which N-terminally biotinylated epitopes (GenScript, Piscataway, NJ, USA) were incubated at concentrations from 5 to 0.05 μM with plate-bound relevant HLA-DRB1 molecules in the absence of a competitor peptide ([22]). The inflection point of the binding curve of a known binding epitope was used as a cutoff to separate weakly binding epitopes from background. […]

Another assay deals with HLA-DRB1*01:01 (Homo sapiens, UniProt P01903+P01911, A100R/D57E/F55L/F60I/F76Y/I96L/L162R/M171V/P40L/Q125E/R42F/V115G/Y59C). The experiment in a line: Competition peptide-binding assay, HLA-DRB1*01:01. The following applies: competition with 0.02 μM biotinylated HA306–318, plate-bound HLA-DRB1*01:01, increasing peptide concentrations; read-out: IC50 *01:01. Here is the method:
Stepwise binding analysis of 15-mer peptides derived from both native and citrullinated α-enolase to HLA-DRB1*01, *04:01, and *04:04 was performed using the ProImmune Class II Reveal assay (ProImmune, Oxford, UK). Relevant peptides were thereafter synthesized by GenScript (Piscataway, NJ, USA) and used for competition peptide-binding assays. […] Finally, peptide-binding affinity to the three different HLA alleles was assessed in direct binding assays in which N-terminally biotinylated epitopes (GenScript, Piscataway, NJ, USA) were incubated at concentrations from 5 to 0.05 μM with plate-bound relevant HLA-DRB1 molecules in the absence of a competitor peptide ([22]). The inflection point of the binding curve of a known binding epitope was used as a cutoff to separate weakly binding epitopes from background.
We decided to make use of HLA-DRB1*01:01 as a representative model for HLA-DRB1*01.

The test system of assay [1] is cultured PBMCs from RA patients. The experiment in a line: Bead-based multiplex cytokine assay in culture supernatants. Type of assay: cell-based, human. The settings on record: supernatants of cultured PBMCs, day 5, Luminex panel IL-10, IL-13, IL-17A, IL-17F, TNF-α, IFN-γ. Here is the method: A bead-based multiplex cytokine assay was custom-designed by Invitrogen for simultaneous detection of IL-10, IL-13, IL-17A, IL-17F, TNF-α, and IFN-γ on a Luminex platform. Supernatants were collected at day 5 and stored at −80°C until used. Supernatants from RA patients were analyzed using the Luminex 100 system according to the manufacturer’s instructions.

The target of a further assay is HLA-DRB1*04:01 (Homo sapiens, UniProt P01903+P01911, A100K/A169T/F76Y/I96L/K127E/L162R/M171V/N62H/P40V/Q125Y/R42H/S133A/S149N/S66Y/V115G/V209L/W38E). The experiment in a line: biochemical.

Square brackets hold non-standard residues; d marks the D form. Peptide text beside a SMILES is read from it. Cit = NC(=O)NCCC[C@H](N)C(=O)O

Procedure for HLA-DRB1*04:01: The HLA-DR binding capacity of the identified peptides was assessed through in vitro competition binding assays in which native and citrullinated candidate epitopes were tested for their capacity to displace an established reference peptide (Figure 2; Table 2).

With `CC[C@H](C)[C@H](NC(=O)[C@H](Cc1c[nH]cn1)NC(=O)[C@H](CCC(=O)O)NC(=O)[C@@H](NC(=O)[C@H](C)NC(=O)[C@H](CCCCN)NC(=O)[C@H](CO)NC(=O)[C@@H](NC(=O)CNC(=O)[C@H](CCCCN)NC(=O)CNC(=O)[C@H](CCSC)NC(=O)[C@H](Cc1ccc(O)cc1)NC(=O)[C@@H](N)CCCNC(N)=O)C(C)C)C(C)C)C(=O)N[C@@H](CC(N)=O)C(=O)O` [cit56] (H-[Cit]YMGKGVSKAVEHIN-OH; N-terminus and C-terminus assumed), the IC50 on HLA-DRB1*04:04 and at HLA-DRB1*01:01 was greater than 50 µM throughout. Also, the “cytokine response in supernatants compared to the native peptide form” value in assay [1] was “strong responses”.

In the case of `CC[C@H](C)[C@H](NC(=O)[C@H](CCCCN)NC(=O)[C@H](CC(C)C)NC(=O)[C@@H](NC(=O)[C@H](CO)NC(=O)[C@@H](N)CCSC)[C@@H](C)CC)C(=O)N[C@@H](Cc1c[nH]cn1)C(=O)N[C@@H](C)C(=O)N[C@@H](CCCNC(=N)N)C(=O)N[C@@H](CCC(=O)O)C(=O)N[C@H](C(=O)N[C@@H](Cc1ccccc1)C(=O)N[C@@H](CC(=O)O)C(=O)N[C@@H](CO)C(=O)N[C@@H](CCCNC(=N)N)C(=O)O)[C@@H](C)CC` [peptide 1] (H-MSILKIHAREIFDSR-OH), the IC50 on HLA-DRB1*04:04 is greater than 50 µM; on HLA-DRB1*01:01, 3.5 µM; against HLA-DRB1*04:01 it was greater than 50 µM.

`CC(C)C[C@H](NC(=O)CNC(=O)[C@H](CCCCN)NC(=O)[C@H](CO)NC(=O)[C@@H](N)[C@@H](C)O)C(=O)N[C@@H](Cc1ccccc1)C(=O)N[C@@H](CCCNC(=N)N)C(=O)N[C@@H](C)C(=O)N[C@@H](C)C(=O)N[C@H](C(=O)N1CCC[C@H]1C(=O)N[C@@H](CO)C(=O)NCC(=O)N[C@@H](C)C(=O)N[C@@H](CO)C(=O)O)C(C)C` [peptide 26] (H-TSKGLFRAAVPSGAS-OH): the IC50 amounted to 0.5 µM at HLA-DRB1*04:04, 1.4 µM on HLA-DRB1*01:01 and 4 µM at HLA-DRB1*04:01.

In the case of `CC(C)C[C@H](NC(=O)[C@@H]1CCCN1C(=O)[C@H](CC(N)=O)NC(=O)[C@H](CCCNC(=N)N)NC(=O)[C@H](Cc1ccccc1)NC(=O)[C@H](CC(N)=O)NC(=O)[C@H](CCCNC(=N)N)NC(=O)CNC(=O)[C@H](C)NC(=O)[C@H](Cc1ccccc1)NC(=O)[C@H](CCCCN)NC(=O)[C@H](C)NC(=O)[C@@H](N)CCCCN)C(=O)N[C@@H](C)C(=O)N[C@@H](CCCCN)C(=O)O` [peptide 420] (H-KAKFAGRNFRNPLAK-OH), the values for the IC50 on HLA-DRB1*04:04, on HLA-DRB1*01:01 and against HLA-DRB1*04:01 were 25 µM, greater than 50 µM and greater than 50 µM, respectively.

What is called IC50 is the midpoint of a concentration-inhibition curve.
